# Reference: patent US6635434B1, “Immunoassay for pesticides and their degradation products” (Exiqon A/S, priority 1999, dated 2003)
# Several values for one entry are separate records, joined by “and”; a condition that tells them apart may be missing. Equal entries are not always repeated. Entries after “also recorded” stand apart in the source; their conditions may differ.
# Legend:
# [1] = tested on: antibody (HYB 273-1); assay: Competitive ELISA for BAM on plates covalently (photocoupled) coated with BAM-OA-AQ; type: binding, mice; settings: for cross-reactivity (IC50 of BAM divided by IC50 of analyte, times 100): analytes assayed up to 100 mg/L, antibody HYB 273-1
# Procedure: A PolySorp™ microtitre plate was filled by a stationary dispensor with 200 μL/well BAM-OA-AQ (50 ng/mL) in 0.1×PBS. After being exposed to uv-light (300-400 nm) at 34° C. for 30 min, the plate was washed 4 times with de-ionised water and dried 30 min at 37° C. The plate was either used immediately or sealed with tape lid and stored at room temperature in the dark until use.
# (§1) Standards (in Milli-Q® water) and samples (150 μL) were added to the hapten-coated plate followed by the addition of 50 μL antibody (HYB 273-1) diluted in 10×PBST (66.7 ng/mL). The plate was incubated for 1 hour. After washing 4 times with PBST, the plate was incubated with 200 μL/well RαM^HRP diluted 1:1000 in PBST. After a final 6 times wash with PBST, 200 μL/well TMB-Plus was added. The colour development was stopped after 10 minutes by adding 50 μL/well 1 M H2SO4 and the absorbance was read at 450 nm.
# (§2) The standards were used to generate a semi-log graph based on the 4-parameter-logistic method (Rodbard, 1974: equation 1), followed by calculation of sample values. [formula]
# (§3) To compare the performances of the two ELISA methods with antigen coated by passive adsorption to that by covalent immobilisation respectively, standard curves were generated with BAM standards ranging from 0.0156 to 2 μg/L on each surface using the identical assay procedures. The data were normalised by the % B/B0 transformation (eq 2). The normalised data were then plotted vs. BAM concentration and the four-parameter-logistic equation (eq 1) was fitted to the experimental points (FIG. 3).
# As to detection limits (defined as the analyte concentration giving a 15% decrease in maximum signal: DL15) and sensitivity (defined as the analyte concentration giving a 50% decrease in maximum signal: IC50) the two surface performs almost equally. […] Further development of the BAM assay was therefore based on this technology and the following results are generated on PolySorp™ microtire plates covalently coated with BAM-OA-AQ as described herein in the Preparation of plates section
# [2] = Immunisation of mice with hapten-polymer carrier complex, raising of monoclonal antibodies; type: in vivo; settings: hapten coupled to polymer carrier (ovalbumin)
# Procedure: Live mice were primed for immunisation by an intraperitoneal injection of live BCG-vaccine one month before immunisation. The antigen (hapten-OA complex), once adsorbed onto Al(OH)3, was injected intraperitonally and test bleeding were collected. When antibody titre's exceeded 1:2000, mice were considered ready for fusion and the method described by Köhler and Milstein (1975) was employed with minor modifications. Monoclonal antibodies were selected on basis of titre, affinity and specificity. Selected clones were recloned until monoclonality and stored frozen at −80° C.
# Ten to twelve weeks old female Balb/cxCF1 F1-hybrid mice were used for immunisation. One month before immunisation they were primed with 0.2 mL live BCG-vaccine intraperitonally. The antigen (25×carrier/immunogen) was absorbed onto Al(OH)3 as an adjuvant. The total volume of vaccine per immunisation was 200 μL, containing 25× of antigen and […] of adjuvant. The antigen was injected intraperitonally with 2-weeks intervals. Test bleedings were collected 10 days after immunisation and assayed in ELISA.
# When antibody titre's exceeded 1:2000, mice were regarded ready for fusion. The procedure as described by Köhler and Milstein (1975) was employed with minor modifications. Monoclonal antibodies were selected on basis of titre, affinity and specificity. […]
# [3] = tested on: antibody (HYB 273-1); assay: Competitive ELISA for BAM on plates coated with BAM-OA by passive adsorption; type: binding, mice; settings: FIG. 3B
# Procedure: i) Passive adsorption: A MaxiSorp™ microtitre plate was filled by a stationary dispensor with 200 μL/well BAM-OA (16.7 ng/mL) in coating buffer. After coating over night at 4° C. the plate was washed 4 times with de-ionised water and dried 30 min at 37° C. The plate was either used immediately or sealed with tape lid and stored at room temperature in the dark until use.
# as §1, §2
# as §3, with “The normalised data were then plotted vs. BAM concentration and the four-parameter-logistic equation (eq 1) was fitted to the experimental points (FIG. 3).” left out
Compound,"cross-reactivity (IC50 of BAM divided by IC50 of analyte, times 100) [1]",immunoresponse on immunisation with the hapten [2],also measured
"N#Cc1c(Cl)cccc1Cl [dichlorbenil, dichlorobenzonitrile]",no measurable cross-reactivity,–,–
"NC(=O)c1ccc(Cl)cc1Cl [2,4-dichlorobenzamide]",3.8%,–,–
"N-(5-carboxypentyl)-2,4-dichloro-3-amido aniline [EQ-0031]",–,good responses were generated; also recorded: generated good immunoresponse,–
"O=C(CCCCCNC(=O)c1c(Cl)cccc1Cl)ON1C(=O)CCC1=O [EQ-0025, succinimidyl-N-(2,6-dichlorobenzoyl)-6-amino-hexanoate]",–,able to induce strong immunoresponse,–
"NC(=O)c1c(Cl)cccc1Cl [BAM, 2,6-dichlorobenzamide]",–,–,"IC50 (analyte concentration giving a 50% decrease in maximum signal) ([1]; covalently immobilised plates (PolySorp, photocoupled), FIG. 3A): 0.189 ng/mL and 0.19 ng/mL; DL15 (detection limit, analyte concentration giving a 15% decrease in maximum signal) ([1]; photo catalysed covalent immobilisation, FIG. 3A): 0.02 µg/L; DL15 (detection limit, analyte concentration giving a 15% decrease in maximum signal) ([3]; passive adsorption): 0.045 µg/L; IC50 (analyte concentration giving a 50% decrease in maximum signal) ([3]; passively adsorbed plates (MaxiSorp)): 0.144 ng/mL and 0.14 ng/mL"
